What is called inhibition is the drop in the measured response relative to a control, in per cent. The % inhibition is how much of the control response was suppressed.

The target in assay [1] is AGK (Homo sapiens (Human), UniProt Q53H12). Kind of assay: KiNativ assay. Format: binding. Particulars: H929 live cell. Put shortly:
(§1)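 Screening used intact H929 cells treated with each compound at 10 μM in duplicate; KiNativ labelling followed, and MS quantitation yielded IC50.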

For assay [2], the system named is ALK2, ALK4, ALK7, BMPR1B, TGFbR1. The assay can be described thus: KiNativ assay. Format: binding. Particulars: H929 live cell. Put shortly: as §1
Assay [3] has as its target ATM (Homo sapiens (Human), UniProt Q13315). Kind of assay: KiNativ assay. Particulars: H929 live cell. Format: binding. Put shortly: as §1
For assay [4], the target named is CLK3 (Homo sapiens (Human), UniProt P49761). Kind of assay: KiNativ assay. In kind it is binding. Particulars: H929 live cell. Put shortly: (§2)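 Compounds were tested in duplicate at 10 μM in live H929 cells, and kinase engagement was profiled by KiNativ with mass spectrometry read-out to derive IC50.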
CLK3, sequence (P49761 whole entry): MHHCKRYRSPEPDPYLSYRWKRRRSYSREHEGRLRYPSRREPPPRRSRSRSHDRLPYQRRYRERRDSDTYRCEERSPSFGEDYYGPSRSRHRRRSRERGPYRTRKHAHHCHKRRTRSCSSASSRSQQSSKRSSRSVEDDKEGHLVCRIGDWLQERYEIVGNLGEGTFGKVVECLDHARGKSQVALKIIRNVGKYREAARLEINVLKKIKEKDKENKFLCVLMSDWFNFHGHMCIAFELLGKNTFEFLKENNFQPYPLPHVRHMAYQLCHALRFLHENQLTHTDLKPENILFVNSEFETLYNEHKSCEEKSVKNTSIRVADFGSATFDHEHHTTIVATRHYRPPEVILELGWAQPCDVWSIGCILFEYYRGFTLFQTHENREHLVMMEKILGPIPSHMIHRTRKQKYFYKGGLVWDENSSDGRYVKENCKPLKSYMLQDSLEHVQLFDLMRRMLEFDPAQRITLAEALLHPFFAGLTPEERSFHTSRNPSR
In assay [5] the target is GPRK6 (Homo sapiens (Human), UniProt P43250). Kind of assay: KiNativ assay. Format: binding. Particulars: H929 live cell. Put shortly: as §2
GPRK6, sequence (P43250 whole entry): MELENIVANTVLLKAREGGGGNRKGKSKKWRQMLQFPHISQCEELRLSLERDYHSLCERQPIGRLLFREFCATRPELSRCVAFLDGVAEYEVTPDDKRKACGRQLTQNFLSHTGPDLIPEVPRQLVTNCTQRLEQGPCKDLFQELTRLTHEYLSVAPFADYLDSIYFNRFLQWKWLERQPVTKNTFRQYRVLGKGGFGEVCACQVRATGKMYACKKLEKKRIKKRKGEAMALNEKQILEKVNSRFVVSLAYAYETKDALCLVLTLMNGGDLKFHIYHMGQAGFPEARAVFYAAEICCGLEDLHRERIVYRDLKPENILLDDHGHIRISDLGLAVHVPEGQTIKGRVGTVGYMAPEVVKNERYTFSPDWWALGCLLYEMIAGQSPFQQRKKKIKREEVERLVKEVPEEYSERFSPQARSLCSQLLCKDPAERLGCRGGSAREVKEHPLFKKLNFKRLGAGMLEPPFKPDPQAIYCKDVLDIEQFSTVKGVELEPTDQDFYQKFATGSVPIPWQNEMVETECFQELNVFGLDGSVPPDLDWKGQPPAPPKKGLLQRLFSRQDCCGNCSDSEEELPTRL
Assay [6] addresses LZK (Homo sapiens (Human), UniProt O43283). The assay can be described thus: KiNativ assay. In kind it is binding. Particulars: H929 live cell. The gist of the method: as §1
In assay [7] the target is MAP3K3 (Homo sapiens (Human), UniProt Q99759). The assay can be described thus: KiNativ assay. In kind it is binding. Particulars: H929 live cell. The gist of the method: as §1
Assay [8] deals with MAP3K6 (Homo sapiens (Human), UniProt O95382). The assay can be described thus: KiNativ assay. In kind it is binding. Particulars: H929 live cell. Put shortly: as §2
Assay [9] has as its system MAST1, MAST2. The assay can be described thus: KiNativ assay. In kind it is binding. Particulars: H929 live cell. The gist of the method: as §2
Assay [10] addresses PCTAIRE1 (Homo sapiens (Human), UniProt Q00536). Kind of assay: KiNativ assay. Format: binding. Particulars: H929 live cell. The gist of the method:
as §1

The subject of assay [11] is PCTAIRE1, PCTAIRE3. Kind of assay: KiNativ assay. Format: binding. Particulars: H929 live cell. Put shortly:
as §1

Assay [12] concerns PCTAIRE2, PCTAIRE3. The assay can be described thus: KiNativ assay. In kind it is binding. Particulars: H929 live cell. Put shortly: as §1
For assay [13], the target named is TAK1 (Homo sapiens (Human), UniProt O43318). Kind of assay: KiNativ assay. In kind it is binding. Particulars: H929 live cell. The gist of the method:
as §2

The test system of assay [14] is p-MOB1. The assay can be described thus: Western blotting. Format: cell-based. Particulars: MM.1S cells, 1 μM and 10 μM, 6 hours. The source says:
MM.1S, KMS20 and H929 cells are counted, diluted and plated. Cells are then […] with DMSO or different concentration of a compound of the present application for 6 hrs, 24 hrs or 48 hrs. MM cells are then collected and centrifuged at RT and the pellets are re-suspended in lysis buffer. Cell lysates are subjected to sodium dodecyl sulfate-polyacrylamide gel electrophoresis SDS-PAGE, transferred to nitrocellulose membranes, and immunoblotted with different antibodies.
MM.1S, KMS20 and H929 cells were counted, diluted and plated in six-well plates to a final concentration of 500,000 cells/well. Cells were then […] with DMSO or different concentration of a compound of the present application for 6 hrs, 24 hrs or 48 hrs. MM cells were then collected and centrifuged for 5 min, 1300 rpm at RT. The pellets were re-suspended in lysis buffer Laemli 1× (Laemli 5×: SDS 10%, DTT 500 mM, Tris-HCl pH6.8 0.4M, BromoFenol Blue, Glycerol 50%). Cell lysates were subjected to sodium dodecyl sulfate-polyacrylamide gel electrophoresis SDS-PAGE, transferred to nitrocellulose membranes, and immunoblotted with different antibodies: YAP1 (#4912), p-YAP1 (S127) (#13008), LATS1 (#9153), p-LATS1 (Thr1079) (#8654), MOB1 (#3863), p-MOB1 (Thr12) (#8843), p-MST1/p-MST2 (Thr183/Thr180) (#3681), p21 (#2947), PARP (#9532), ERK, STAT, and GAPDH (#5174) from Cell Signaling, Beverly, Mass., United States; STK4 (ab57836) (from Abcam, Cambridge, Mass., United States); PUMA (sc-28226), BAX (sc-20067), from Santa Cruz, Dallas, Tex., United States; β-actin from Sigma-Aldrich (St. Louis, Mo., United States). All antibodies were diluted 1:500, except for β-actin antibody (1:50,000 dilution). In FIG. 8, H929 cells were treated with Compound I-9 or DMSO at 1 μM concentration for 24 hours. Lysates were then obtained and immunoblot was performed using antibodies against PARP, YAP1, PUMA, BAX. p21, and GAPDH.
In FIGS. 26A-26J, MM.1S cells were treated with Compound I-6, Compound I-31, Compound I-30, Compound I-22, Compound I-27, Compound I-1, Compound I-23, Compound I-13, Compound I-28, Compound I-9, or DMSO at 1 μM and 10 μM concentrations for 6 hours. Lysates were then obtained and immunoblot was performed using antibodies against MOB1 and p-MOB1. As shown from FIGS. 26A-26J, Compound I-22, Compound I-27, Compound I-1, Compound I-23, Compound I-13, Compound I-28, and Compound I-9 reduced PMOB1 levels at different concentrations.

The test system of assay [15] is AKT2, AKT3. The assay can be described thus: KiNativ assay. Format: binding. Particulars: H929 live cell; for % inhibition (range): 10 μM. The gist of the method: as §1
The target in assay [16] is CK1g1 (Homo sapiens (Human), UniProt Q9HCP0). The assay can be described thus: KiNativ assay. Format: binding. Particulars: H929 live cell. Put shortly:
as §2

The target of assay [17] is KHS2 (Homo sapiens (Human), UniProt Q8IVH8). Kind of assay: KiNativ assay. Format: binding. Particulars: H929 live cell. The gist of the method: as §2
KHS2, sequence (Q8IVH8 whole entry): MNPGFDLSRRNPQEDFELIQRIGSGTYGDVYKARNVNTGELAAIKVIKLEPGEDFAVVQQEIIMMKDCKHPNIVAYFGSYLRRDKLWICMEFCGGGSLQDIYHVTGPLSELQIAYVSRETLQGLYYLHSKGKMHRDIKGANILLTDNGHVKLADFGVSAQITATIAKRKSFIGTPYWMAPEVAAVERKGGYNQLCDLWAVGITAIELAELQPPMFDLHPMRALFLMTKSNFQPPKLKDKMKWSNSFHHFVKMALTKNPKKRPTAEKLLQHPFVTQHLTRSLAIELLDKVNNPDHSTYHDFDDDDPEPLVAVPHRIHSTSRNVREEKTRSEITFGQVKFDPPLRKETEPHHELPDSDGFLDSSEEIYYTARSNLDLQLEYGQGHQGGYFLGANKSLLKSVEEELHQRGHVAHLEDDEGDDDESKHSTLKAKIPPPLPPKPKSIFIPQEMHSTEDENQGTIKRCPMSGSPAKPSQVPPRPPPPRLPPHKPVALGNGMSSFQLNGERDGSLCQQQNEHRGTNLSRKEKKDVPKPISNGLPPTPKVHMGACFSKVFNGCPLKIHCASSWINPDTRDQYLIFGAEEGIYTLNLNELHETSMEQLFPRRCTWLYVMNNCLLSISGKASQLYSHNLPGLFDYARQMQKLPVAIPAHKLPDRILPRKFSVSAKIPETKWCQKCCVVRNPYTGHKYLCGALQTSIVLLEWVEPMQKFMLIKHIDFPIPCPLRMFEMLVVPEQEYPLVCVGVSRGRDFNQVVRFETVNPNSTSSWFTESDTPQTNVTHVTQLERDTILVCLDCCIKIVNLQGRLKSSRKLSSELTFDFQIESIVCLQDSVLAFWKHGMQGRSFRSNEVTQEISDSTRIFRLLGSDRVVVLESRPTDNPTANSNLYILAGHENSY
Assay [18] addresses PDK1 (Homo sapiens (Human), UniProt O15530). Kind of assay: KiNativ assay. Format: binding. Particulars: H929 live cell. Put shortly: as §1
Assay [19] deals with RIPK3 (Homo sapiens (Human), UniProt Q9Y572). Kind of assay: KiNativ assay. Format: binding. Particulars: H929 live cell. The gist of the method: as §1
RIPK3, sequence (Q9Y572 whole entry): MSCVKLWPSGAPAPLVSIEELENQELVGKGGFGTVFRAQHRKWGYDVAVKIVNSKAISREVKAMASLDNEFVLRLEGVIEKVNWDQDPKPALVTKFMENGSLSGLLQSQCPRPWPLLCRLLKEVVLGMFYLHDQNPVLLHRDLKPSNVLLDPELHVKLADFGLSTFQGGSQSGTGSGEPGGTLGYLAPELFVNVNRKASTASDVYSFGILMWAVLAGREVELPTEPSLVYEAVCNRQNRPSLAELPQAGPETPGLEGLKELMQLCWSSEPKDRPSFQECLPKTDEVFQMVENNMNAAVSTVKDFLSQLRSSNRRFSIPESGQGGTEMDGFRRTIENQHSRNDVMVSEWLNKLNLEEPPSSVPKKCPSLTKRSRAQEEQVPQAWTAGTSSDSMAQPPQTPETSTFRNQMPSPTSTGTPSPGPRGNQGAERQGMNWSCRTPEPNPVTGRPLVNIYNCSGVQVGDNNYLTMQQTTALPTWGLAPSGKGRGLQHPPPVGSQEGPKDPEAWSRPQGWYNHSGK
For assay [20], the system named is ROCK1, ROCK2. Kind of assay: KiNativ assay. Format: binding. Particulars: H929 live cell; for % inhibition (range): 10 μM. The gist of the method: as §1
The mark [21] stands for this setting: range class, read-out: % inhibition.

Structures are written as SMILES. Like-named read-outs stand apart in the source and are kept apart here.

CK1g1, sequence (Q9HCP0 whole entry): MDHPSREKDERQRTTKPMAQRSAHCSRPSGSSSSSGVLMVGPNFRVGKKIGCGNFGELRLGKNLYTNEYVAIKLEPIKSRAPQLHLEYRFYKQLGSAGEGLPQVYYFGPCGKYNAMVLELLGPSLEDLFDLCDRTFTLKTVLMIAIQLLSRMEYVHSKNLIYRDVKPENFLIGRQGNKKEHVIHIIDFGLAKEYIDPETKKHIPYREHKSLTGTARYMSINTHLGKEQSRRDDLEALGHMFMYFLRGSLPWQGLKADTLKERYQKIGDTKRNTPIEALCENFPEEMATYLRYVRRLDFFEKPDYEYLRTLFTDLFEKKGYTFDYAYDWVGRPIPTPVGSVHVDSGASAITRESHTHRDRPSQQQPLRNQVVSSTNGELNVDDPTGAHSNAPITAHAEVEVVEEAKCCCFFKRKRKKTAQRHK
PDK1, sequence (O15530 whole entry): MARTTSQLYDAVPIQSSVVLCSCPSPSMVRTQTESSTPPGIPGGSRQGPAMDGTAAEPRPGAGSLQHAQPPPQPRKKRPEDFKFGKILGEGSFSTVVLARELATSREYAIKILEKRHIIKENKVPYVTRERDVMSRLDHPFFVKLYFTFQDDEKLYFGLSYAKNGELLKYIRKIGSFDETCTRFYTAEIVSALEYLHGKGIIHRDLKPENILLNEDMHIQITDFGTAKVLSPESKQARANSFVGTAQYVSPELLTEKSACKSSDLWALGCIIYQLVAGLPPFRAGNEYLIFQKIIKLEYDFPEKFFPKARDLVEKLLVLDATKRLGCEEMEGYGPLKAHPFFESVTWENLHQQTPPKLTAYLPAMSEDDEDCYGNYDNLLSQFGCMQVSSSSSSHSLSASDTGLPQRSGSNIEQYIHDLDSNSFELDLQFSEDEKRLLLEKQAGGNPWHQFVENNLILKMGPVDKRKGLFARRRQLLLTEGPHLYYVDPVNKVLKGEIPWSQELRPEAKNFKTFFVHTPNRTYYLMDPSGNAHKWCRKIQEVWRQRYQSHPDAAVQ
AGK, sequence (Q53H12 whole entry): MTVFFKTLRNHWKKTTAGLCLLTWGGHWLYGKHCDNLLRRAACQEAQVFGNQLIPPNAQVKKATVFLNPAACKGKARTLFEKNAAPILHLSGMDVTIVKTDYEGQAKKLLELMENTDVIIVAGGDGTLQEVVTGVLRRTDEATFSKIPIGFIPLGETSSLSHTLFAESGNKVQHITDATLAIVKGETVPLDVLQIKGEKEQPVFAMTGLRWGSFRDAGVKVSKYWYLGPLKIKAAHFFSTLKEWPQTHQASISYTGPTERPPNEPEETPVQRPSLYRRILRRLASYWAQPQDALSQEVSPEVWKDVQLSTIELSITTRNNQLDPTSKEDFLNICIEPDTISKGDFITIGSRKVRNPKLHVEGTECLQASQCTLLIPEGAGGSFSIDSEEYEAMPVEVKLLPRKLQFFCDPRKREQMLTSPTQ
TAK1, sequence (O43318 whole entry): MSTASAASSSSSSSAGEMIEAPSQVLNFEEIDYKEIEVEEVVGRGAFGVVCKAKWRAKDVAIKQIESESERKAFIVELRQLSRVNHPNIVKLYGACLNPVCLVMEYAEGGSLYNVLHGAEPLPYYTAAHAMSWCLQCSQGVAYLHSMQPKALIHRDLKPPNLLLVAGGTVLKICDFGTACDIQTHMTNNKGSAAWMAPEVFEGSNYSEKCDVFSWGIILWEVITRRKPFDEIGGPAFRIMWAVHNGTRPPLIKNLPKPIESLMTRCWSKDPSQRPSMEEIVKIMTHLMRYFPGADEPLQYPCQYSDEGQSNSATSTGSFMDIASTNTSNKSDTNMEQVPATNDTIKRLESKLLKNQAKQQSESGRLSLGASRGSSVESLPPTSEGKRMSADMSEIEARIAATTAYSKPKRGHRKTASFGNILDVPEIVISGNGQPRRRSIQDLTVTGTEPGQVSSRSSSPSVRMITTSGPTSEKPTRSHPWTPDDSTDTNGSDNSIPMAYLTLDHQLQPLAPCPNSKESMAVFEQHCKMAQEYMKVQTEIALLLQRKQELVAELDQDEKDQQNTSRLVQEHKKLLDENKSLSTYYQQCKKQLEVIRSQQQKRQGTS
PCTAIRE1, sequence (Q00536 whole entry): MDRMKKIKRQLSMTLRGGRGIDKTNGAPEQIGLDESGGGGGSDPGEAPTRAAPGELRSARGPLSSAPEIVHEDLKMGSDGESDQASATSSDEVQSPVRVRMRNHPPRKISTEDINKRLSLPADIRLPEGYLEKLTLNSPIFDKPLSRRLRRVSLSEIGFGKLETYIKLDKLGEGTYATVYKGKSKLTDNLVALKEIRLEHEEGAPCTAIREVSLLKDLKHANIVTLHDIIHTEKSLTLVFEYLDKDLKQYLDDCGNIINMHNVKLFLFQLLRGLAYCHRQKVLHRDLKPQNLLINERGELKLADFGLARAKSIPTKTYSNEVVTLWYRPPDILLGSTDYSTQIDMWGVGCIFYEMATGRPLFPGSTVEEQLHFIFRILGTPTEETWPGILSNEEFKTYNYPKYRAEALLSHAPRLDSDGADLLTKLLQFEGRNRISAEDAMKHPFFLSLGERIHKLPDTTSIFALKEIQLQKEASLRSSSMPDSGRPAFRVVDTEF

`Nc1ncc(-c2ccc(NS(=O)(=O)C3CC3)cc2F)cc1-c1ccc2c(c1)CCNC2=O` [Compound I-51, N-(4-(6-amino-5-(1-oxo-1,2,3,4-tetrahydroisoquinolin-6-yl)pyridin-3-yl)-3-fluorophenyl) cyclopropanesulfonamide]: the inhibition at 10 µM is 0% in [1] (setting [21]); -12.1% in assay [1] (read-out: inhibition (10 μM)); 35 to 40% in assay [3] (setting [21]); 40.3% in [3] (read-out: inhibition (10 μM)); 0% in assay [4] (setting [21]); 23.3% in assay [4] (read-out: inhibition (10 μM)). Moreover, the inhibition at 10 µM was 0% in [5] (setting [21]); 4.7% in [5] (read-out: inhibition (10 μM)); 0% in assay [6] (setting [21]); 11.3% in assay [6] (read-out: inhibition (10 μM)); 0% in assay [7] (setting [21]); -29.3% in [7] (read-out: inhibition (10 μM)). The inhibition at 10 µM in assay [8] (setting [21]) is 0%; in assay [8] (read-out: inhibition (10 μM)) it was 24.4%; in assay [10] (setting [21]), 0%; in assay [10] (read-out: inhibition (10 μM)) it was -0.2%; in assay [13] (setting [21]), 0%; in assay [13] (read-out: inhibition (10 μM)) it was 30%. Also, the “% inhibition” value in [2] (10 μM, range class) was 75-90%; in assay [9] (10 μM, range class) it was 0.0%; in [11] (10 μM, range class), 0.0%; in assay [12] (10 μM, range class) it was 0.0%. In addition, the “inhibition (10 μM)” value in [2] is reported as 76.2%; in assay [9], −2.9%; in assay [11], 29.4%; in assay [12], 5.1%.

With `CN(C1CC1)S(=O)(=O)c1ccc(-c2cnc(N)c(-c3ccc4c(c3)CCNC4=O)c2)c(F)c1` [Compound I-28, 4-(6-amino-5-(1-oxo-1,2,3,4-tetrahydroisoquinolin-6-yl)pyridin-3-yl)-N-cyclopropyl-3-fluoro-N-methylbenzenesulfonamide], the PMOB1 levels entry in assay [14] was “reduced”. Also, the “% inhibition (range)” value in [15] and in [20] was 0.0% in each case. Besides, the “inhibition (10 μM)” value worked out at 14.9% in assay [15] and 20.8% in assay [20]. Further, the inhibition at 10 µM in assay [16] (read-out: % inhibition (range)) is 75 to 90%; in [16] (read-out: inhibition (10 μM)) it was above 85%; in [17] (read-out: % inhibition (range)), 50 to 75%; in [17] (read-out: inhibition (10 μM)), 68.3%; in assay [18] (read-out: % inhibition (range)), 0%; in [18] (read-out: inhibition (10 μM)), 5.9%. The inhibition at 10 µM in assay [19] (read-out: inhibition (10 μM)) was -121%.

In the case of `Nc1ncc(-c2cccc([N+](=O)[O-])c2F)cc1-c1ccc2c(c1)CCNC2=O` [Compound I-9, 6-(2-amino-5-(2-fluoro-3-nitrophenyl)pyridin-3-yl)-3,4-dihydroisoquinolin-1(2H)-one], the PMOB1 levels result in assay [14] is reported as “reduced”. The “% inhibition (range)” value in [15] and in assay [20] was 0.0% throughout. Moreover, the figures for the “inhibition (10 μM)” value in assay [15] and in assay [20] were −1.3% and −55.8%, respectively. The inhibition at 10 µM in assay [16] (read-out: % inhibition (range)) is 75 to 90%; in [16] (read-out: inhibition (10 μM)), above 85%; in assay [17] (read-out: % inhibition (range)) it was 50 to 75%; in assay [17] (read-out: inhibition (10 μM)), 69.5%; in assay [18] (read-out: % inhibition (range)), 0%; in assay [18] (read-out: inhibition (10 μM)), 28.1%. Besides, the results for the inhibition at 10 µM in [19] (read-out: % inhibition (range)) and in assay [19] (read-out: inhibition (10 μM)) were 0% and -33.4%, respectively.
